Columns and labels:
Solubility = type: physicochemical
[1] = Toxicity upon intraperitoneal administration; conditions: mouse, in vivo, ip
[2] = Blood glucose and organ glycogen upon predetermined (2.5 h) cold treatment (adaptation experiment); type: in vivo, mice; conditions: no adaptation, preparation 1 hour prior to the testing effect, 2.5 h at -14° C.

SMILES: CN(C)CCOC(=O)CCC(=O)O [Compound of this invention, butanedioic acid mono[(2-dimethylamino)ethyl ester]succinate]
- solubility in acetone (Solubility; acetone): sparingly soluble
- solubility in ethanol (Solubility; ethanol): sparingly soluble
- solubility in water (Solubility; water): well soluble
- LD50 [1]: 3040 mg/kg
- Glycogen, heart ([2]; control 1.7 ± 0.2): 2.2 ± 3.4 mg/g
- Glycogen, liver ([2]; control 6.7 ± 0.4): 7.1 ± 2.6 mg/g
- Blood glucose ([2]; control 37 ± 6): 59 ± 2.6 mg. %
